Measured values taken from patent US10611778B2, “Fused bicyclic inhibitors of menin-MLL interaction” (Janssen Pharmaceutica NV, priority 2016, dated 2020).

Columns and labels:
[1] = target: T1, Menin/MLL (terbium chelate-labeled menin, FITC-MBM1 peptide) (Homo sapiens, UniProt O00255, T541A); experiment: Menin/MLL homogenous time-resolved fluorescence (HTRF) assay; format: binding; conditions: averaged values over all measurements; read-out: Menin HTRF assay (IC50)
T1 construct: Menin (a.a. 1-610-6×his tag) was labeled with terbium cryptate as follows
T1 sequence (O00255 with tags, fused parts or gaps T541A): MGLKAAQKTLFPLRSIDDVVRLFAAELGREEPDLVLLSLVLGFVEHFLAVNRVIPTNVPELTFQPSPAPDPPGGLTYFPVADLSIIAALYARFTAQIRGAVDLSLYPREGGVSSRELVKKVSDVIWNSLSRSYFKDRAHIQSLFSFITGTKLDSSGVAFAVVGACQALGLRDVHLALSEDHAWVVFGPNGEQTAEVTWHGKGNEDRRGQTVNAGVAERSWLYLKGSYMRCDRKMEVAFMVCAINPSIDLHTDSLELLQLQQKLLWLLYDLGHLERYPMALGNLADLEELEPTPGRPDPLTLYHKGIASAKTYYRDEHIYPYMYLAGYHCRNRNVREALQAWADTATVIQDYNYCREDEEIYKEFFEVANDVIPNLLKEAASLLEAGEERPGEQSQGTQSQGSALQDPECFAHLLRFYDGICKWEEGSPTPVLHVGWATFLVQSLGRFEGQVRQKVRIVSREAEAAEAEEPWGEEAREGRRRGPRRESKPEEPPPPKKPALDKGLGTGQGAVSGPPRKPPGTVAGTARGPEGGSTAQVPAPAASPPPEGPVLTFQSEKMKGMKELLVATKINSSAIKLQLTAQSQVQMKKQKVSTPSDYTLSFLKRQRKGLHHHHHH
Procedure: 3) Menin/MLL Homogenous Time-Resolved Fluorescence (HTRF) Assay
To an untreated, white 384-well microtiter plate was added 40 nL 200× test compound in DMSO and 4 μL 2× terbium chelate-labeled menin (vide infra for preparation) in assay buffer (40 mM Tris-HCl, pH 7.5, 50 mM NaCl, 1 mM DTT and 0.05% Pluronic F-127). After incubation of test compound and terbium chelate-labeled menin for 5 min at ambient temperature, 4 μL 2×FITC-MBM1 peptide (FITC-β-alanine-SARWRFPARPGT-NH2) in assay buffer was added, the microtiter plate centrifuged at 1000 rpm for 1 min and the assay mixtures incubated for 15 min at ambient temperature. The relative amount of menin⋅FITC-MBM1 complex present in an assay mixture is determined by measuring the homogenous time-resolved fluorescence (HTRF) of the terbium/FITC donor/acceptor fluorophore pair using a BMG Pherastar plate reader (ex. 337 nm/terbium em. 490 nm/FITC em. 520 nm) at ambient temperature. The degree of fluorescence resonance energy transfer (the HTRF value) is expressed as the ratio of the fluorescence emission intensities of the FITC and terbium fluorophores (F^em 520 nm/F^em 490 nm). The final concentrations of reagents in the binding assay are 100 pM terbium chelate-labeled menin, 75 nM FITC-MBM1 peptide and 0.5% DMSO in assay buffer. Dose-response titrations of test compounds are conducted using an 11 point, three-fold serial dilution scheme, starting at 31 μM.
Compound potencies were determined by first calculating % inhibition at each compound concentration according to equation 1: % inhibition=((HC−LC)−(HTRF^compound−LC))/(HC−LC))*100 (Eqn 1)
Where LC and HC are the HTRF values of the assay in the presence or absence of a saturating concentration of a compound that competes with FITC-MBM1 for binding to menin, and HTRF^compound is the measured HTRF value in the presence of the test compound. HC and LC HTRF values represent an average of at least 16 replicates per plate.
Where Bottom and Top are the lower and upper asymptotes of the dose-response curve, respectively, IC50 is the concentration of compound that yields 50% inhibition of signal and h is the Hill coefficient.
Preparation of Terbium cryptate labeling of Menin: Menin (a.a. 1-610-6×his tag) was labeled with terbium cryptate as follows. 2 mg of Menin was buffer exchanged into 1× phosphate buffered saline. 16 uM Menin was incubated with 4-fold molar excess NHS-terbium cryptate (Cisbio Bioassays, Bedford, Mass.) for 2 hours at room temperature. The labeled protein was purified away from free label by running the reaction over a Superdex 200 Increase 10/300 GL column at 0.75 ml/min. Peak fractions were collected, aliquoted and frozen at −80° C.

MV-4-11 = experiment: Proliferation assay (spheroid assay) MV-4-11; format: cell-based, human; conditions: Homo sapiens, MV4-11, MV-4-11; averaged values over all measurements; read-out: Spheroid assay MV-4-11 (IC50)
Procedure: The anti-proliferative effect of menin/MLL protein/protein interaction inhibitor test compounds was assessed in human leukemia cell lines. The cell lines MV-4-11 and MOLM14 harbor MLL translocations and express the MLL fusion proteins MLL-AF4 and MLL-AF9, respectively, as well as the wildtype protein from the second allele. […] K562 and KG1 were used as a control cell lines containing two MLL wildtype alleles in order to exclude compounds that display general cytotoxic effects.
MV-4-11 and MOLM14 were cultured in RPMI-1640 (Sigma Aldrich) supplemented with 10% fetal bovine serum (HyClone), 2 mM L-glutamine (Sigma Aldrich) and 50 μg/ml gentamycin (Gibco). K562 were propagated in RPMI-1640 (Sigma Aldrich) supplemented with 20% fetal bovine serum (HyClone), 2 mM L-glutamine (Sigma Aldrich) and 50 μg/ml gentamycin (Gibco). KG1 were cultured in Iscove's MDM (Gibco) supplemented with 20% fetal bovine serum (HyClone), 2 mM L-glutamine (Sigma Aldrich) and 50 μg/ml gentamycin (Gibco).
In order to assess the anti-proliferative effects, 1,500 MV-4-11, 300 MOLM14, 750 K562 or 1,300 KG1 cells were seeded in 200 μl media per well in 96-well round bottom, ultra-low attachment plates (Costar, catalogue number 7007). Cell seeding numbers were chosen based on growth curves to ensure linear growth throughout the experiment. Test compounds were added at different concentrations and the DMSO content was normalized to 0.3%. Cells were incubated for 8 d at 37° C. and 5% CO2. Spheroid like growth was monitored in real-time by live-cell imaging (IncuCyteZOOM, Essenbio, 4× objective) acquiring one image every four hours for 8 d. Confluence (%) as a measure of spheroid size was determined using an integrated analysis tool.
In order to determine the cumulative effect of the test compounds over time, the area under the curve (AUC) in a plot of confluence against time was calculated. Confluence at the beginning of the experiment (t=0) was used as baseline for the AUC calculation.
Absolute IC50 values were calculated according to the following procedure: % Control=(AUC sample/AUC control)*100
AUC control=mean AUC of control values (cells without compound/DMSO as vehicle control)
A non-linear curve fit was applied using the least squares (ordinary) fit method to the plot of % control versus compound concentration. Based on this, the absolute IC50 value (half maximal inhibitory concentration of the test compound causing an anti-proliferative effect of 50% relative to the vehicle control) was calculated.

Row | SMILES | IC50 [1] [nM] | IC50 (MV-4-11) [nM]
1 | CC(CN1CC[C@@H]2CN(c3ncnc4sc(CC(F)(F)F)cc34)C[C@@H]2C1)C(F)(F)F (single isomer, unassigned) [Compound 47] | 55 | 2300
2 | FC(F)(F)Cc1cc2c(N3C[C@H]4CCN(CCC5CCOCC5)C[C@H]4C3)ncnc2s1 (single isomer, unassigned) [Compound 59] | 212 | 1800
3 | CC(=O)N1CCC(CN2CC[C@@H]3CN(c4ncnc5sc(CC(F)(F)F)cc45)C[C@@H]3C2)CC1 (single isomer, unassigned) [Compound 76] | 105 | 2900
4 | FC(F)(F)Cc1cc2c(N3CC[C@@H]4[C@@H](CCN4Cc4ccc[nH]4)C3)ncnc2s1 (single isomer, unassigned) [Compound 85] | 103 | 3100
5 | OC1(CN2CC[C@@H]3CN(c4ncnc5sc(CC(F)(F)F)cc45)C[C@@H]3C2)CCOCC1 (single isomer, unassigned) [Compound 86] | 198 | 6600
6 | O=C(C1CCOCC1)N1CCC(CN2CC[C@@H]3CN(c4ncnc5sc(CC(F)(F)F)cc45)C[C@@H]3C2)CC1 (single isomer, unassigned) [Compound 91] | 30 | 1200
7 | O=C(C1CCCOC1)N1CCC(CN2CC[C@@H]3CN(c4ncnc5sc(CC(F)(F)F)cc45)C[C@@H]3C2)CC1 (single isomer, unassigned) [Compound 92] | 14 | 450
8 | CC(C)(C)CC(=O)N1CCC(CN2CC[C@@H]3CN(c4ncnc5sc(CC(F)(F)F)cc45)C[C@@H]3C2)CC1 (single isomer, unassigned) [Compound 93] | 20 | 580
9 | O=C(c1ccccc1)N1CCC(CN2CC[C@@H]3CN(c4ncnc5sc(CC(F)(F)F)cc45)C[C@@H]3C2)CC1 (single isomer, unassigned) [Compound 94] | 18 | 430
10 | O=C(C1COC1)N1CCC(CN2CC[C@@H]3CN(c4ncnc5sc(CC(F)(F)F)cc45)C[C@@H]3C2)CC1 (single isomer, unassigned) [Compound 95] | 69 | 2100
11 | O=C(c1cccnc1)N1CCC(CN2CC[C@@H]3CN(c4ncnc5sc(CC(F)(F)F)cc45)C[C@@H]3C2)CC1 (single isomer, unassigned) [Compound 96] | 45 | 1000

More lines, now with the values ahead:

Row | IC50 [1] [nM] | IC50 (MV-4-11) [nM] | SMILES
12 | 105 | 1500 | COc1cncc(CN2CC[C@@H]3CN(c4ncnc5sc(CC(F)(F)F)cc45)C[C@@H]3C2)c1 (single isomer, unassigned) [Compound 46]
13 | 44 | 1900 | CC(CN1CC[C@@H]2CN(c3ncnc4sc(CC(F)(F)F)cc34)C[C@@H]2C1)c1ccccc1 (single isomer, unassigned) [Compound 49]
14 | 62 | 2300 | FC(F)(F)Cc1cc2c(N3C[C@H]4CCN(Cc5cnoc5)C[C@H]4C3)ncnc2s1 (single isomer, unassigned) [Compound 51]
15 | 41 | 860 | FC(F)(F)Cc1cc2c(N3C[C@H]4CCN(Cc5cnsc5)C[C@H]4C3)ncnc2s1 (single isomer, unassigned) [Compound 52]
16 | 97 | 2100 | Cn1cncc1CN1CC[C@@H]2CN(c3ncnc4sc(CC(F)(F)F)cc34)C[C@@H]2C1 (single isomer, unassigned) [Compound 54]
17 | 75 | 3300 | FC(F)(F)Cc1cc2c(N3C[C@H]4CCN(Cc5ccnnc5)C[C@H]4C3)ncnc2s1 (single isomer, unassigned) [Compound 55]
18 | 41 | 1400 | FC(F)(F)Cc1cc2c(N3C[C@H]4CCN(Cc5cccnc5)C[C@H]4C3)ncnc2s1 (single isomer, unassigned) [Compound 56]
19 | 146 | 1700 | COc1ccncc1CN1CC[C@@H]2CN(c3ncnc4sc(CC(F)(F)F)cc34)C[C@@H]2C1 (single isomer, unassigned) [Compound 61]
20 | 36 | 2200 | FC(F)(F)Cc1cc2c(N3C[C@H]4CCN(Cc5ccc(Cl)nc5Cl)C[C@H]4C3)ncnc2s1 (single isomer, unassigned) [Compound 62]
21 | 56 | 1200 | FC(F)(F)Cc1cc2c(N3C[C@H]4CCN(Cc5ccnc(Cl)c5)C[C@H]4C3)ncnc2s1 (single isomer, unassigned) [Compound 65]
22 | 266 | 2900 | Cn1ccc(CN2CC[C@@H]3CN(c4ncnc5sc(CC(F)(F)F)cc45)C[C@@H]3C2)cc1=O (single isomer, unassigned) [Compound 68]
23 | 28 | 1000 | OCCn1cc(CN2CC[C@@H]3CN(c4ncnc5sc(CC(F)(F)F)cc45)C[C@@H]3C2)cn1 (single isomer, unassigned) [Compound 75]
24 | 24 | 240 | FC(F)(F)Cc1cc2c(N3C[C@H]4CCN(Cc5ccc(C6CC6)nc5)C[C@H]4C3)ncnc2s1 (single isomer, unassigned) [Compound 89]
25 | 150 | 2000 | COCCn1cc(CN2CC[C@@H]3CN(c4ncnc5sc(CC(F)(F)F)cc45)C[C@@H]3C2)cn1 (single isomer, unassigned) [Compound 97]
26 | 106 | 1100 | CCOc1ccc(CN2CC[C@@H]3CN(c4ncnc5sc(CC(F)(F)F)cc45)C[C@@H]3C2)cn1 (single isomer, unassigned) [Compound 103]
